From patent US9353075B2, “Disubstituted beta-lactones as inhibitors of N-acylethanolamine acid amidase (NAAA)” (The Regents of the University of California, priority 2011, dated 2016)

Each compound was assayed against r-NAAA (Rattus norvegicus (Rat), UniProt Q5KTC7) (assay: r-NAAA inhibition, rat lung lysosomal NAAA preparation, UPLC/MS). Conditions: not given.
Format: biochemical
Method: Lysosomal NAAA protein preparation were obtained by homogenizing male Sprague-Dawley rat lungs (Charles River) in 20 mM Tris-HCl buffer pH 7.4 containing 0.32M sucrose. Samples were centrifuged at 800×g for 15 minutes at 4° C. Supernatants were then centrifuged at 12,000 g for 30 minutes at 4° C. Pellets were then resuspended in PBS pH 7.4 and subjected to a freeze/thaw cycle at −80° C. The suspension was finally centrifuged at 105,000×g for 1 hour at 4° C. The supernatant was then used in the enzymatic assay.
NAAA protein preparation was pre-incubated with various concentrations of test compounds or vehicle control in 100 mM NaH2PO4/Citrate buffer, 1% Triton-X, 3 mM DTT (pH 4.5) for 30 minutes at 37° C. Samples were then incubated with heptadecenoylethanolamide (50 μM, Avanti Polar Lipids) at 37° C. for 30 min. The reaction was terminated by addition of cold methanol containing heptadecanoic acid (NuCheck Prep) as internal standard. Samples were then analyzed by UPLC/MS (Acquity, Waters). Heptadecenoic and heptadecanoic acids were eluted on an Acquity UPLC BEH C18 column (50 mm length, 2.1 mm i.d., 1.7 μm pore size, Waters) isocratically at 0.5 mL/min for 1.5 min with a solvent mixture of 95% methanol and 5% water, both containing 0.25% Acetic Acid and 5 mM Ammonium Acetate. The column temperature was 40° C. Electrospray ionization was in the negative mode, capillary voltage was 0.5 kV, cone voltage was […], desolvation temperature was 500° C. N2 was used as drying gas at a flow rate of 1000 L/hour and a temperature of 500° C. The [M−H]^− ion was monitored in the selected-ion monitoring mode (m/z values: heptadecenoic acid 267.37, heptadecanoic acid 269.37). Calibration curves were generated using commercial heptadecenoic acid (NuCheck Prep). Inhibition of NAAA activity was calculated as reduction of heptadecenoic acid in the samples compared to vehicle controls. IC50 values were calculated by non-linear regression analysis of log [concentration]/inhibition curves using GraphPad Prism 5 (GraphPad Software Inc., CA—USA) applying a standard slope curve fitting.

Chain of r-NAAA (Q5KTC7 34-362): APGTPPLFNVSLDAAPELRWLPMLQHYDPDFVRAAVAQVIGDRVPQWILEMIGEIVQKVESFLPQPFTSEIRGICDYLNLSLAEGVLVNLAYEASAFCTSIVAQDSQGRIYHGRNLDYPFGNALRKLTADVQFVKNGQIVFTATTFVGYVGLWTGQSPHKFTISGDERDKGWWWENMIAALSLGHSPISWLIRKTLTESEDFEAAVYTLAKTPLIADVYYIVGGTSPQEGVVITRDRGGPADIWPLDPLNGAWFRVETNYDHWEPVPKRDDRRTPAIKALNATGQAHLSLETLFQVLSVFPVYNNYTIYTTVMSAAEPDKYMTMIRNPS

| Structure (SMILES) | IC50 [nM] | r-NAAA IC50 (μM) or % inhib. (result in words) |
| --- | --- | --- |
| CCCCCCOC(=O)N[C@H]1C(=O)O[C@H]1C [Example 39, Hexyl-N-[(2S,3R)-2-methyl-4-oxo-oxetan-3-yl]-carbamate] | 270 | – |
| C[C@@H]1OC(=O)[C@@H]1NC(=O)OCCc1ccccc1 [Example 33, Phenethyl-N-[(2S,3R)-2-methyl-4-oxo-oxetan-3-yl]-carbamate] | 2520 | – |
| C[C@@H]1OC(=O)[C@@H]1NC(=O)OCCCCCCc1ccccc1 [Example 34, 6-Phenylhexyl-N-[(2S,3R)-2-methyl-4-oxo-oxetan-3-yl]-carbamate] | 1170 | – |

More lines, now with the values ahead:

| IC50 [nM] | r-NAAA IC50 (μM) or % inhib. (result in words) | Structure (SMILES) |
| --- | --- | --- |
| – | No inhib. | C[C@@H]1OC(=O)[C@@H]1N(C)C(=O)OCCCCCc1ccccc1 [Example 41, 5-Phenylpentyl-N-methyl-N-[(2S,3R)-2-methyl-4-oxo-oxetan-3-yl]-carbamate] |
| 1230 | – | C[C@@H]1OC(=O)[C@@H]1NC(=O)OC1(C)CCCC1 [Example 23, (1-Methylcyclopentyl) N-[(2S,3R)-2-methyl-4-oxo-oxetan-3-yl]-carbamate] |
| 18 | – | C[C@H]1OC(=O)[C@@H]1NC(=O)OCCCCCc1ccccc1 [Example 38, 5-Phenylpentyl-N-[(2R,3R)-2-methyl-4-oxo-oxetan-3-yl]-carbamate] |
| 750 | – | C[C@@H]1OC(=O)[C@@H]1NC(=O)OC1CCC(=Cc2ccccc2)CC1 (stereo partly drawn) [Example 31, (R,Z) and (S,E)-(4-Benzylidenecyclohexyl)-N-[(2S,3R)-2-methyl-4-oxooxetan-3-yl]-carbamate] |
| 310 | – | C[C@@H]1OC(=O)[C@@H]1NC(=O)OC1CCC(Cc2ccccc2)CC1 (mixture of isomers) [Example 30, (1s,4S) and (1r, 4R)-(4-Benzylcyclohexyl)-N-[(2S,3R)-2-methyl-4-oxooxetan-3-yl]-carbamate] |
| 3530 | – | C[C@H]1OC(=O)[C@H]1NC(=O)OCCCCCc1ccccc1 [Example 37, 5-Phenylpentyl-N-[(2R,3S)-2-methyl-4-oxo-oxetan-3-yl]-carbamate] |
| 100 | – | CC(C)C(CCCCc1ccccc1)OC(=O)N[C@H]1C(=O)O[C@H]1C (mixture of isomers) [Example 28, [(1R) and (1S)-1-Isopropyl-5-phenyl-pentyl]-N-[(2S,3R)-2-methyl-4-oxo-oxetan-3-yl]-carbamate] |

Same assay, conditions: read-out: r-NAAA % inhib. @ 3 μM

| Structure (SMILES) | inhibition at 3 µM [%] |
| --- | --- |
| CC(C)(C)[C@@H]1OC(=O)[C@@H]1NC(=O)OCc1ccc(-c2ccccc2)cc1 (relative stereo) [Example 59, (4-Phenyl-phenyl)-methyl-N-[(2S*,3R*)-2-tert-butyl-4-oxo-oxetan-3-yl]-carbamate] | 57 |
| CC[C@@H]1OC(=O)[C@@H]1NC(=O)OCc1ccc(-c2ccccc2)cc1 (relative stereo) [Example 50, (4-Phenylphenyl)-methyl-N-[(2S*,3R*)-2-ethyl-4-oxo-oxetan-3-yl]-carbamate] | 100 |
| CC[C@H]1OC(=O)[C@@H]1NC(=O)OCc1ccc(-c2ccccc2)cc1 (relative stereo) [Example 48, (4-Phenylphenyl)-methyl-N-[(2R*,3R*)-2-ethyl-4-oxo-oxetan-3-yl]-carbamate] | 100 |
| CC(C)(C)[C@H]1OC(=O)[C@@H]1NC(=O)OCc1ccc(-c2ccccc2)cc1 (relative stereo) [Example 57, (4-Phenyl-phenyl)-methyl-N-[(2R*,3R*)-2-tert-butyl-4-oxo-oxetan-3-yl]-carbamate] | 73 |
| CC(C)[C@H]1OC(=O)[C@@H]1NC(=O)OCCCCCc1ccccc1 (relative stereo) [Example 51, 5-Phenylpentyl-N-[(2R*,3R*)-2-isopropyl-4-oxo-oxetan-3-yl]-carbamate] | 92 |
| C[C@@H]1OC(=O)[C@@H]1NC(=O)OC1CCN(Cc2ccccc2)CC1 [Example 21, (1-benzyl-4-piperidyl)-N-[(2S,3R)-2-methyl-4-oxo-oxetan-3-yl]-carbamate] | 21 |
| CC(C)[C@@H]1OC(=O)[C@@H]1NC(=O)OCc1ccc(-c2ccccc2)cc1 (relative stereo) [Example 54, (4-Phenylphenyl)-methyl-N-[(2S*,3R*)-2-isopropyl-4-oxo-oxetan-3-yl]-carbamate] | 53 |
